The results in this text go back to patent publication US20210222225A1, “Medium for Disk Diffusion Method to Evaluate Antibiotic Sensitivity” (priority 2018, published 2021).

One test has as its system ABA, KPN and PAE strains. Briefly: Growth of strain on guanidine hydrochloride-containing medium. The format is cell-based. Particulars: guanidine hydrochloride 5 to 50 μg/ml; agar 5.1 g/L.
For a further test, the system named is PAE ATCC 27853. Briefly: Growth of strain on protamine-containing medium, PAE. It counts as cell-based, Pseudomonas aeruginosa. As for the experimental part:
(§1) As in Example 1, a concentration of agar particles (BD Diagnostic, Sparks, Md., USA) in Mueller-Hinton broth medium (BD Diagnostic) was adjusted to 17 g/L or 5.1 g/L that is 30% of 17 g/L. To select a concentration of protamine, which can enhance diffusion of colistin from a disk without interfering with bacterial growth, while using the protamine at various concentrations, protamine (Sigma-Aldrich, St Louis, Mo., USA) was added to the medium at concentrations of 1 mg/ml, 700 μg/ml, 400 μg/ml, 300 μg/ml, 200 μg/ml, 150 μg/ml, 100 μg/ml, and 50 μg/ml. Each medium thus modified was solidified. Then, on a surface of each medium was evenly inoculated each of colistin-susceptible (S) or -resistant (R) Acinetobacter calcoaceticus-baumannii complex (ACB) strain, Pseudomonas aeruginosa ATCC27853 strain, and mcr-1-harboring Enterobacter aerogenes strain, and a colistin disk was placed thereon. Then, it was determined whether each strain was grown, and a diameter of a growth inhibition zone, which had been formed around the disk, was measured.

Test [1] relates to mcr-1-harboring Enterobacter aerogenes strain. Put plainly: Growth of strain on protamine-containing medium, mcr-1. It counts as cell-based. Here is the method: as §1
Test [2] concerns Colistin-susceptible Acinetobacter. Put plainly: Growth of strain on protamine-containing medium, ACB-S. The format is cell-based, Acinetobacter calcoaceticus-baumannii complex. Here is the method:
as §1

Test [3] has as its system Colistin-resistant Acinetobacter. Briefly: Growth of strain on protamine-containing medium, ACB-R. It counts as cell-based, Acinetobacter calcoaceticus-baumannii complex. As for the experimental part: as §1

Where a name gives a salt, the structure may show the parent alone.

Protocol for ABA, KPN and PAE strains: A concentration of agar particles (BD Diagnostic, Sparks, Md., USA) in Mueller-Hinton broth medium (BD Diagnostic) was adjusted to 5.1 g/L, which is 30% of 17 g/L, and guanidine hydrochloride was added to a concentration of 500 μg/ml, 50 μg/ml, or 5 μg/ml. Then, solidification was performed. On a surface of each medium thus prepared was evenly inoculated each of colistin-susceptible (S) or -resistant (R) Acinetobacter baumannii (ABA) strain, colistin-susceptible (S) or -resistant (R) Klebsiella pnemoniae (KPN) strain, and colistin-susceptible (S) or -resistant (R) Pseudomonas aeruginosa (PAE) strain, and a colistin disk was placed thereon.

For the compound `N=C(N)N` [guanidine hydrochloride], in the test on ABA, KPN and PAE strains, the “growth of the strain” value is listed as “not inhibited”.

As for protamine, the Growth result in the test with PAE ATCC 27853 (30% agar, protamine 50 μg/ml) is recorded as “Grown”; with PAE ATCC 27853 (30% agar, protamine 100 μg/ml) it was “Grown”; in the test with PAE ATCC 27853 (30% agar, protamine 150 μg/ml) it was “Grown”; with PAE ATCC 27853 (30% agar, protamine 200 μg/ml), “Grown”; in the test with PAE ATCC 27853 (100% agar, protamine 50 μg/ml) it was “Grown”; in the test with PAE ATCC 27853 (100% agar, protamine 100 μg/ml), “Grown”. In addition, the Growth entry in the test on PAE ATCC 27853 (100% agar, protamine 150 μg/ml) is “Grown”; with PAE ATCC 27853 (100% agar, protamine 200 μg/ml) it was “Grown”; in the test on PAE ATCC 27853 (100% agar, protamine 300 μg/ml), “Grown”; in the test with PAE ATCC 27853 (100% agar, protamine 400 μg/ml), “Grown”; in test [1] (30% agar, protamine 50 μg/ml), “Grown”; in test [1] (30% agar, protamine 100 μg/ml), “Grown”. Also, the Growth entry is “Grown” in test [1] (30% agar, protamine 150 μg/ml); “Grown” in test [1] (30% agar, protamine 200 μg/ml); “Grown” in test [1] (100% agar, protamine 50 μg/ml); “Grown” in test [1] (100% agar, protamine 100 μg/ml); “Grown” in test [1] (100% agar, protamine 150 μg/ml); “Grown” in test [1] (100% agar, protamine 200 μg/ml). Moreover, the Growth result in test [1] (100% agar, protamine 300 μg/ml) is on record as “Grown”; in test [1] (100% agar, protamine 400 μg/ml), “Grown”; in test [1] (100% agar, protamine 700 μg/ml), “Grown”; in test [2] (30% agar, protamine 50 μg/ml) it was “Grown”; in test [2] (30% agar, protamine 100 μg/ml), “Grown”; in test [2] (30% agar, protamine 150 μg/ml), “Grown”. Also, the Growth entry is “Grown” in test [2] (100% agar, protamine 50 μg/ml); “Grown” in test [2] (100% agar, protamine 100 μg/ml); “Grown” in test [2] (100% agar, protamine 150 μg/ml); “Grown” in test [2] (100% agar, protamine 200 μg/ml); “Grown” in test [2] (100% agar, protamine 300 μg/ml); “Grown” in test [2] (100% agar, protamine 400 μg/ml). In addition, the Growth entry in test [2] (100% agar, protamine 700 μg/ml) is recorded as “Grown”; in test [3] (30% agar, protamine 50 μg/ml), “Grown”; in test [3] (30% agar, protamine 100 μg/ml) it was “Grown”; in test [3] (30% agar, protamine 150 μg/ml), “Grown”; in test [3] (100% agar, protamine 50 μg/ml), “Grown”; in test [3] (100% agar, protamine 100 μg/ml), “Grown”. Further, the Growth result in test [3] (100% agar, protamine 150 μg/ml) was “Grown”; in test [3] (100% agar, protamine 200 μg/ml), “Grown”; in test [3] (100% agar, protamine 300 μg/ml), “Grown”; in test [3] (100% agar, protamine 400 μg/ml) it was “Grown”.
